Results reported in patent US20230240989A1, “LIPOSOMAL OZONE NANOSOLUTIONS” (priority 2021, published 2023).
Where “and” joins values, the source holds several entries; their conditions need not be identical. Equal entries are not always repeated. Where two headings read alike, the source gives them in different places.

Key:
[1] = test system: female rats of Sprague downey breed; conditions: skin biopsy of laparotomy incision line, group average
Text: A total of 72 skin biopsies of 72 animals from the abdomen were examined in the experimental groups in the applications on the wound lips on the skin line where the incision was made; Physiological Salt Water (FTS), 1% Lidocaine, ozone-free nanosolution, 250 ppm ozone nanosolution, 500 ppm ozone nanosolution, 500 ppm ozone nanosolution+2% Lidocaine (50% blend), 1000 ppm Ozone nanosolution+2% Lidocaine (50% blend) and 2000 ppm ozone nanosolution+2% Lidocaine (50% blend). Lesions were scored and group average scores were obtained.

[2] = test system: BALB/c 3T3 (CCL-163) cell line; conditions: mouse, 48 h
[3] = test system: L-929 mouse fibroblast cell line; conditions: 48 h
[4] = test system: back skin of New Zealand albino rabbits; assay: Skin irritation test TS EN ISO 10993-10 (barrier solution)
Text: Three healthy young New Zealand albino rabbits with a body weight of 2-3 kg were used as experimental animals.
Test material given under the title of TS EN ISO 10993-10:2010 annex A A.2,2 Liquid test materials; Liquids were applied without dilution or by direct precipitation or, if not applicable, at a dose of 1600 ppm, which is the usage dose according to the guideline. […] The sponge impregnated with the nanosolution of the invention was kept in direct contact with the sample application areas. SLS impregnated sponge was applied to the positive control area. The samples were covered with gauze, fixed with a bandage, and topically contacted with the back skin for 4 hours. The primary irritation index was determined by evaluating the application areas (1±0.1) […], and (72±2) hours after the 4th hour application, according to the skin reaction score given in Chart 1. As stated in the standard, the 1st hour was not included in the calculation.

[5] = test system: inner cheek pouch of Syrian hamsters; assay: Oral mucosal irritation test
Method: Oral mucosal irritation test was carried out considering the TS EN ISO 10993-10:2010 standard, the experimental animal used in the test is considered according to TS EN ISO 10993-2:2006 standard, the material preparation is made according to TS EN ISO 10993-12:2012 standard guidelines. The test is performed for materials intended to come into contact with oral tissue and where safety data cannot be obtained by other means.
Animals were acclimated to the environment by taking care of them as specified in TS EN ISO 10993-2:2006. Healthy young adult Syrian hamsters of both sexes, unrelated to a single strain, were used for testing. Product sample-impregnated gauze was placed in the inner cheek pouch of each animal under ketamine/Xylazine anesthesia. The exposure time was evaluated according to the rule of reflecting the actual expected use time of the material, and the sample was kept in the inner cheek pouch for 1 hour.
Test material given under the title of ISO 10993-10:2010 annex A A.2,2 Liquid test materials; Liquids were applied without dilution or by direct precipitation or, if not applicable, at a dose of 1600 ppm, which is the usage dose according to the guideline. Saline solution-impregnated absorbent gauze was used as negative control. As a positive control, HCl acid solution adjusted to pH 1.5 was used in our laboratory based on the rule that liquids with pH 2 and below are considered irritating.
The left inner cheek pouch of each animal was evaluated for the experimental sample, and the contralateral (Right) inner cheek was considered as the negative control. No material was placed into the right side inner cheek pouch, it was only washed with physiological saline and dissected at the end of the experiment.
Gauze cloth impregnated with a usage dose of 1600 ppm of the nanosolution of the invention was placed in the left inner cheek pouch of Syrian hamsters under ketamine/Xylazine anesthesia, whose inner cheeks were emptied and washed with saline. After the exposure of the subject to the sample for 1 hour, the sample was removed and the inner cheek was rinsed with saline solution, taking care not to contaminate the other cheek. Experiment (left) and control (right) inner cheek pouches were evaluated macroscopically according to chart 1. The experiment was terminated after 1 hour of contact.
According to the standard directive, the exposure time should reflect the actual expected use time of the material, but should not be less than 5 minutes. The repeated observation rating (Table 1) performed at long-term chronic exposures is summed up and divided by the total repeat application 4. Since it is a device with subacute use, the application was performed 4 times with one hour intervals. Observations of the sample applied left inner cheek were compared with the right inner cheeks (negative control) washed with saline.

[6] = test system: back skin of New Zealand albino rabbits; assay: Irritation test TS EN ISO 10993-10 (injection solution); type: in vivo, rabbit; conditions: for Primary irritation score (score average): 24th-72nd hour, 1st hour not included
Text: Test material given under the title of TS EN ISO 10993-10:2010 annex A A.2,2 Liquid test materials; Liquids should be tested without dilution or by direct precipitation or, if not applicable, by diluting with physiological saline to ¼ dose, which is the usage dose in accordance with the directive that it should be tested by diluting with a suitable liquid.
Sodium lauryl sulphate (SLS) was used as a positive control and distilled water was used as a negative control.
SLS-impregnated sponge was applied to the positive control area (area no 3). The samples were covered with gauze, fixed with a bandage, and topically contacted with the back skin for 4 hours.
The primary irritation index was determined by evaluating the application areas (1±0.1) s, (24±2) s, (48±2) s, and (72±2) hours after the 4th hour application, according to the skin reaction score given in Chart 1. As stated in the standard, the 1st hour was not included in the calculation.

albino guinea pigs = assay: Sensitization test, Closed Patch-Buehler method; conditions: per animal
[7] = left cheek (experiment), single subject

## CCN(CC)CC(=O)Nc1c(C)cccc1C [1% lidocaine]
[1]
  Collagen Epidermis/Dermis (%): 25.33 ± 2.46%
[1]; scoring out of 3
  Bleeding score: 0.83 ± 0.54
  Connective tissue score: 2.67 ± 0.33
  Edema score: 0.67 ± 0.33
  Inflammation score: 2.50 ± 0.34
  Vascular formation score: 1.83 ± 0.17

## C[S+](C)[O-] [PC, Dimethylsulfoxide]
[2]; 3 % v/v
  Vitality %: 31.25%
[2]; 10 % v/v
  Optical density (OD) mean value 570 nm ± standard deviation (SD): 0.1 ± 0.06
  Vitality %: 24.37%
[2]; 30 % v/v
  Optical density (OD) mean value 570 nm ± standard deviation (SD): 0.078 ± 0.02
[3]; 10 % v/v
  Vitality %: 53.44%
[3]; 30 % v/v
  Vitality %: 36.46%

## CCCCCCCCCCCCOS(=O)(=O)[O-].[Na+] [Positive control, Sodium lauryl sulphate]
[4]; 24th, 48th, 72nd hours
  Primary Irritation Score Rabbit 1: 2.167 ± 1.169
  Primary Irritation Score Rabbit 2: 1.333 ± 1.2
  Primary Irritation Score Rabbit 3: 1.500 ± 1.049
[4]; three rabbits
  Primary Irritation Index: 1.666
[5]; hamster, in vivo
  macroscopic examination of inner cheek mucosa: Areas of mucosal erosion were noted
[5]; [7]
  Microscopic irritation score Edema: 0
  Microscopic irritation score Epithelium: 3
  Microscopic irritation score Leukocyte infiltration: 2 (Mild (26 to 50))
  Microscopic irritation score Vascular congestion: 1
[6]; Rabbit 1
  Primary irritation score (score average): 2.167 ± 1.169
[6]; Rabbit 2
  Primary irritation score (score average): 1.333 ± 1.211
[6]; Rabbit 3
  Primary irritation score (score average): 1.500 ± 1.049
[6]; mean of three rabbits
  Primary Irritation Index: 1.666
Albino guinea pigs; 24th hour after stimulation, 2020 Oct. 27
  Magnusson and Kligman Rating: 2
Albino guinea pigs; 48th hour after stimulation, 2020 Oct. 28
  Magnusson and Kligman Rating: 2
Albino guinea pigs; Induction first week, application date 2020 Sep. 24, 6 h closed patch
  Magnusson and Kligman Rating: 1
Albino guinea pigs; Induction first week, application date 2020 Sep. 26, 6 h closed patch
  Magnusson and Kligman Rating: 1
Albino guinea pigs; Induction first week, application date 2020 Sep. 28, 6 h closed patch
  Magnusson and Kligman Rating: 1
Albino guinea pigs; Induction, application date 2020 Oct. 2, 6 h closed patch, sulphate
  Magnusson and Kligman Rating: 2 (3×) and 1 (2×)
Albino guinea pigs; Induction, application date 2020 Oct. 4, 6 h closed patch
  Magnusson and Kligman Rating: 2
Albino guinea pigs; Induction, application date 2020 Oct. 7, 6 h closed patch
  Magnusson and Kligman Rating: 2
Albino guinea pigs; Induction, application date 2020 Oct. 9, 6 h closed patch, sulphate
  Magnusson and Kligman Rating: 2 (4×) and 3
Albino guinea pigs; Induction, application date 2020 Oct. 12, 6 h closed patch, sulphate
  Magnusson and Kligman Rating: 3 (4×) and 2
Albino guinea pigs; Induction, application date 2020 Sep. 31, 6 h closed patch, sulphate
  Magnusson and Kligman Rating: 1 (4×) and 2
Albino guinea pigs; Stimulation application, 2020 Oct. 26, sulphate
  Magnusson and Kligman Rating: 2 (4×) and 3
